Patent US7423025B2 (MUSC Foundation for Research Development, priority 2005, dated 2008)
“Also recorded” adds a separate entry of the source.

Tests used:
[1] = test system: Langendorff perfused mouse heart; assay: Ischemia/reperfusion model on Langendorff perfused (isolated) mouse heart, cardioprotective activity; conditions: for maximum ischemic contracture, in words / time until onset of ischemic contracture, in words: 5 min pretreatment before 40 min ischemia; for cardiac tissue necrosis / infarction area by TTC staining, in words: 5 min pretreatment before ischemia-reperfusion; for infarction area (TTC staining, percentage of area) / maximum ischemic contracture: 5 min pretreatment; for infarction area (TTC staining, percentage of area) / maximum ischemic contracture / onset of contracture (time until onset of ischemic contracture): 40 min global ischemia; for infarction area (TTC staining, percentage of area): 60 min reperfusion, negative control 58.3±5.8%; for infarction area (TTC staining, percentage of area) / maximum ischemic contracture / onset of contracture (time until onset of ischemic contracture) / functional recovery (% rate pressure product): Mean±SEM; for maximum ischemic contracture: negative control 105.0±6.8 cmH2O; for onset of contracture (time until onset of ischemic contracture): negative control 10.5±1.0 min; for functional recovery (% rate pressure product): after 40 min ischemia and reperfusion, negative control 21.3±1.4; for functional recovery of contractility (% RPP), in words: upon reperfusion after 40 min ischemia
L6 myoblasts = assay: Azide-induced Pasteur effect in L6 myoblasts measured by microphysiometer; assay type: cell-based; conditions: sodium azide 5 mM, 10 min exposure, normalized to first azide exposure 30 min prior
Method: FIG. 5 is a graph showing increase of the azide-induced Pasteur effect on L6 myoblasts by L-3′-AM-MECA (2) and L-3′-ADMdA (1). Percent changes in extracellular acidification rates upon treatment of L6 cells with sodium azide (5 mM) are shown. Responses are the average for 10 min exposure and these are normalized to the increase measured for the first exposure of the same cells to azide 30 min prior. Typically the second exposure causes a diminished Pasteur effect (see control). Error bars are SEM for n=3-5. * Statistically different from negative control (IR).
The ability of increasing the azide-induced Pasteur in L6 myoblasts was measured by microphysiometer.

[2] = target: S-adenosyl-L-homocysteine hydrolase (Homo sapiens, UniProt P23526); conditions: cited from earlier work
[3] = test system: mammalian nucleoside transporters; conditions: cited from earlier work

Sequence of S-adenosyl-L-homocysteine hydrolase (P23526 whole entry, species assumed): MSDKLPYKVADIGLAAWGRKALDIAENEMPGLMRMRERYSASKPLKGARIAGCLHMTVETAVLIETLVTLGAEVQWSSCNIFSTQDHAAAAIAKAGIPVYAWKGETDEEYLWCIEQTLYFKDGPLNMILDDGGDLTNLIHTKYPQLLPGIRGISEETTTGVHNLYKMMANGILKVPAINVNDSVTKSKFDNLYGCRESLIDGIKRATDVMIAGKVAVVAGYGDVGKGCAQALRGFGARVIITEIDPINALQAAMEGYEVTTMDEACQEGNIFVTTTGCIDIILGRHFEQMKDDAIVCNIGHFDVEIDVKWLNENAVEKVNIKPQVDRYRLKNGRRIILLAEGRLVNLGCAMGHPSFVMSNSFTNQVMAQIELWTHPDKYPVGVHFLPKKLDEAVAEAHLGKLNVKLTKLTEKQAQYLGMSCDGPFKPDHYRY

SMILES | maximum ischemic contracture, in words [1] | time until onset of ischemic contracture, in words [1] | cardiac tissue necrosis / infarction area by TTC staining, in words [1] | infarction area (TTC staining, percentage of area) [1] [%] | maximum ischemic contracture [1] [cmH2O] | onset of contracture (time until onset of ischemic contracture) [1] [min] | functional recovery (% rate pressure product) [1] | functional recovery of contractility (% RPP), in words [1] | increase of azide-induced Pasteur effect (extracellular acidification rate) (L6 myoblasts) [%] | functional recovery of contractility (% RPP), in words ([1]; listed as L-3′-AM-MECA) | activity on animal enzymes such as S-adenosyl-L-homocysteine hydrolase [2] | interaction with mammalian nucleoside transporters [3] | cardiac standstill during treatment ([1]; during 5 min perfusion before ischemia, adenosine at 50 μM)
Nc1ncnc2c1ncn2[C@@H]1O[C@H](CO)[C@@H](O)[C@H]1O [adenosine, reference compound] | lower maximal | delayed time until onset of ischemic contracture | significantly less evidence of necrosis | 24.6±5.8 | 74.1±15.6 | 13.6 ± 0.6 | 30.7±3.4 cmH2O/s % rate pressure product | significantly increased recovery of function |  |  |  |  | 
OC[C@H]1O[C@@H](n2cnc3c(NC4CCCC4)nc(Cl)nc32)[C@H](O)[C@@H]1O [CCPA, reference compound] |  |  |  |  |  |  |  |  | 19 |  |  |  | 
CNC(=O)[C@H]1O[C@@H](n2cnc3c(N)ncnc32)[C@H](O)[C@@H]1O [MECA, reference compound] |  |  |  |  |  |  |  |  | 115 |  |  |  | 
CNC(=O)[C@@H]1O[C@H](n2cnc3c(NC)ncnc32)[C@@H](O)[C@H]1N [Compound 2, L-3′-amino-3′-deoxy-N^6-methyladenosine-5′-N-methyluronamide] | significant decrease of maximum ischemic contracture; also recorded: significantly decreased maximum ischemic contracture | does not show a significant effect; also recorded: did not significantly alter this parameter | protective effect that is comparable or higher than adenosine; also recorded: showed decrease of cardiac tissue necrosis | 31.8±5.4 | 87.6±6.3 |  |  | did not show significant functional recovery | 128 | did not show any significant effect |  |  | 
Nc1ncnc2c1ncn2[C@H]1O[C@@H](CO)[C@H](O)[C@@H]1O [L-adenosine] |  |  |  |  |  |  |  |  |  |  | inactive | does not interact | 
CN(C)c1ncnc2c1ncn2[C@H]1O[C@@H](CO)[C@H](N)[C@@H]1O [Compound 1, L-3′-amino-3′-deoxy-N^6-dimethyladenosine] | significant decrease of maximum ischemic contracture; also recorded: significantly decreased maximum ischemic contracture | increasing the time until onset of ischemic contracture | protective effect that is comparable or higher than adenosine; also recorded: showed decrease of cardiac tissue necrosis | 39.8±5.7 | 74.3±7.8 | 14.5 ± 0.9 | 32.2±3.7 cmH2O/s % rate pressure product | significant functional recovery of contractility | 136 |  |  |  | neither showed cardiac standstill during treatment; also recorded: neither (1) nor (2) induce cardiac standstill
